Where two headings read alike, the source gives them in different places.
How the values were obtained:
[1] = in vivo; cited from earlier work
[2] = tested on: patients with statin-induced myopathy (SIM); experiment: Example 1: HMB and leucic acid combination therapy in patients with statin-induced myopathy; assay type: in vivo, human; details: two patients with SIM on statin, summary
Description: The effects of combined administration of HMB and leucic acid was studied in two patients with statin-induced myopathy (SIM). Both patients enrolled were under the care of a board certified cardiologist. […] person with a history of PCI/coronary stent ramus intermedius; historically statin intolerant lipid disorder with LDL=168, total cholesterol=281, with triglycerides=316 on a hypolipidemic regimen of Welchol, 6 tabs/d (for a total of 1500-3000 mg/d) and Zetia, 10 mg/d; unable to achieve goal (i.e., LDL cholesterol <100 mg % in patients with coronary risk factors and <70 mg % in coronary patients (with previous myocardial infarction (MI), percutaneous coronary intervention (PCI), or coronary bypass surgery) as well as patients with peripheral vascular disease and diabetics) off statins and therefore begun on Vytorin, 10/40 mg daily+3-hydroxy 3-methyl butyrate (HMB) at 2 grams BID. […] person with angiographic small vessel disease; type 2 diabetes and type 2a hyperlipidemia; history of statin intolerance with myalgia, weakness and severely elevated CPKs (900-1000 range, normal 200); patient therefore treated with Welchol 6 grams/d and Zetia 10 mg/d with an LDL=185 on this regimen. The patient was subsequently placed on Crestor 20 mg/d+HMB 2 grams BID with a drop in LDL=49 and improved CPK levels (300-400 range).

[3] = NOAEL for HMB oral ingestion in rats (Baxter et al.); assay type: in vivo, rat; details: for estimated human equivalent dose of rat NOAEL: in vivo, oral; for estimated human equivalent of NOAEL as total amount: assuming a body weight of 150 lbs
Description: This is an estimated human equivalent of 558 mg/kg and 665 mg/kg for men and women, respectively; assuming a body weight of 150 lbs equates to 38 g (males) and 45 g (females). […] Overall, standard doses of HMB appear to be well-tolerated over long periods of time.

rats = details: oral ingestion, cited from earlier work
Human = details: cited from earlier work
[4] = towards oxygenation in humans; cited from earlier work

Row | Compound | half-lives [1] | time to reach peak levels [1] | resolution of SIM [2] | estimated human equivalent dose of rat NOAEL ([3]; female, women) | estimated human equivalent of NOAEL as total amount ([3]; females) | estimated human equivalent dose of rat NOAEL ([3]; male, men) | estimated human equivalent of NOAEL as total amount ([3]; males) | No Observed Adverse Effect Level (NOAEL) (rats; female rats) | No Observed Adverse Effect Level (NOAEL) (rats; male rats) | toxicological parameters in serum (Human; 3 g HMB daily for up to 8 weeks, youth and older persons) | safety of long-term administration (Human; 3 g daily, one year of administration) | toxic effects on serum parameters (Human; approximately 6 g HMB daily (78 mg/kg) for one month, untrained young males subject to exercise) | basophils (Human; half the dose (of approximately 6 g daily), considered to be insignificant) | tolerability (Human; standard doses over long periods of time) | reaction half time [4]
1 | CC(C)(O)CC(=O)O [HMB, β-hydroxy β-methylbutyrate] | relatively short | quickly | incomplete resolution of SIM | 665 mg/kg | 45 g | 558 mg/kg | 38 g | 4160 mg/kg | 3490 mg/kg | failed to alter toxicological parameters in serum | safe | did not show any toxic effects | spontaneous increase in basophils | well-tolerated | 
2 | CC(C)CC(O)C(=O)O (centres unmarked) [leucic acid, 2-hydroxy-4-methylpentanoic acid] | relatively short | quickly |  |  |  |  |  |  |  |  |  |  |  |  | 230 min

Reference: US20190262291A1, “METHODS AND COMPOSITIONS FOR ALLEVIATING MYOPATHY” (priority 2016, published 2019)
